From ChEMBL document CHEMBL1781901, “Toluidinesulfonamide hypoxia-induced factor 1 inhibitors: alleviating drug-drug interactions through use of PubChem data and comparative molecular field analysis guided synthesis” (J Med Chem, 2011) come the findings set out here.

Assay [1] is described as follows: Inhibition of HIF-1 in human deferoxamine treated HCT-116 cells expressing HRE-bla gene pretreated for 30 mins before deferoxamine challenge measured after 24 hrs by fluorometric analysis. It is filed as cell-based.
A further assay concerns the target Cytochrome P450 2C9 (Homo sapiens, UniProt P11712). Description: Inhibition of CYP2C9 after 30 mins by luminescence assay. The format is ADME.

Each structure is given as a SMILES string.

Sequence of Cytochrome P450 2C9 (P11712 whole entry): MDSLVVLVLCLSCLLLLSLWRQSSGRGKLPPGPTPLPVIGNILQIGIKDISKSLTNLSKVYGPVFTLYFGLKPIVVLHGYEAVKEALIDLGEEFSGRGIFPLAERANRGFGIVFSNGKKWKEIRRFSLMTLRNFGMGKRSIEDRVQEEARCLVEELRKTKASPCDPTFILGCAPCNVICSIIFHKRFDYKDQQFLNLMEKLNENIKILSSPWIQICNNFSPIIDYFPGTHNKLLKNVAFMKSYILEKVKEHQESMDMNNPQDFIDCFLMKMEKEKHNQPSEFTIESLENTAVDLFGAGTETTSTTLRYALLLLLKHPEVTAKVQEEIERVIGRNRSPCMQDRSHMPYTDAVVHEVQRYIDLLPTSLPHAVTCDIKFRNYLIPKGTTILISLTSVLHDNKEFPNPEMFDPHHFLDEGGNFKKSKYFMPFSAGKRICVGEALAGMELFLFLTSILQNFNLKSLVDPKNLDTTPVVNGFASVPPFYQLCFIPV

In general, pIC50 refers to −log10 of the IC50, conventionally taken in molar units. The EC50 is the concentration needed to bring the measured effect to its halfway point. Read a low EC50 as higher potency in that assay. Regarding `COC(=O)c1ccc(C)c(NS(=O)(=O)c2ccc(NC(C)=O)cc2)c1`, the negative-log IC50 (pIC50) in assay [1] is given as 4.7. Moreover, the EC50 on Cytochrome P450 2C9 was 0.251 µM.

Turning to `COC(=O)c1ccc(C)c(NS(=O)(=O)c2ccc(OC)cc2)c1`, the pIC50 in assay [1] is on record as 7.2. Besides, the EC50 at Cytochrome P450 2C9 is 3.98 µM.

As to `COC(=O)c1ccc(C)c(NS(=O)(=O)c2ccc(OC)c(OC)c2)c1`, the pIC50 in assay [1] is less than 5. For the same compound, at Cytochrome P450 2C9, the midpoint of the response, the EC50, lay at 2.51 µM.

With `COC(=O)c1ccc(OC)c(NS(=O)(=O)c2ccc(OC)cc2)c1`, the pIC50 in assay [1] is 5.5. On Cytochrome P450 2C9, this compound showed an EC50 of 39.8 µM.

Turning to `COC(=O)c1ccc(C)c(N(C)S(=O)(=O)c2ccc(C)cc2)c1`, the pIC50 in assay [1] was determined as 5.8. The EC50 on Cytochrome P450 2C9 was 15.8 µM.

As for `COC(=O)c1ccc(C)c(N(C)S(=O)(=O)c2ccc(OC)cc2)c1`, the pIC50 in assay [1] is given as 6.2. This compound had an EC50 at Cytochrome P450 2C9 of 25.1 µM.

As for `COC(=O)c1ccc2c(c1)N(S(=O)(=O)c1ccc(C)cc1)CCO2`, in assay [1], the pIC50 is reported as 7. At Cytochrome P450 2C9, this compound showed an EC50 of 3.98 µM.

As for `COC(=O)c1ccc(C)c(NS(=O)(=O)c2ccc(C)cc2)c1`, the pIC50 in assay [1] amounted to 7.4. The EC50 on Cytochrome P450 2C9 is 1.58 µM.
